{
  "source": "paper PMC4474394",
  "about": "(OncoTargets and therapy, 2015)",
  "test": "In vivo biodistribution in NCI-H157-bearing BALB/c nude mice",
  "conditions": "99mTc-labeled peptide, judged from weak accumulation in brain tissue",
  "data": [
    {"sequence": "TMPFLFCNVNDVCNFASRNDYSKKK [T7]", "values": [
      {"measurement": "Blood–brain barrier penetration", "value": "poor"}
    ]}
  ]
}
